Results on 2 compounds are retold here after publication PMC9791135, “A penetratin-derived peptide reduces the membrane permeabilization and cell toxicity of α-synuclein oligomers” (The Journal of Biological Chemistry, 2022).

Where a SMILES comes first, the peptide text is derived from it.

The test system of data set [1] is SH-SY5Y cells. Nature of the data set: MTT cell viability assay, substance alone. The method, then: (§1) The effect of the peptides on αSOs toxicity in SH-SY5Y cells using 3-(4, 5-dimethylthiazol-2-yl)-2,5-diphenyltetrazolium bromide (MTT) cell viability assay was also tested to complement our calcein data.
(§2) We used the MTT assay to measure cell viability after 24 h treatment with αSOs in the presence of peptides. SH-SY5Y cells were seeded in 96-well plates at a density of 5 × 10^4 cell/ml in Dulbecco's modified Eagle's medium supplemented with 10% FBS, 100 unit/ml penicillin, and […]. The cells were incubated in a humidified atmosphere incubator with 5% CO2 and 95% humidity at 37 °C for 24 h. The culture medium was then replaced with fresh medium containing 10 μM αSOs with peptides and incubated for another 24 h. Then the cell medium was replaced with a fresh medium containing 20% MTT (5 mg/ml), and the cells were incubated for an additional 4 h at 37 °C. Then 100 μl of dimethyl sulfoxide was added to dissolve formazan crystals by incubating for 30 min on a shaker at RT. Consequently, absorbance was measured by using a plate reader at 570 nm.
(In general: Tetrazolium dyes change colour on reduction, which living cells bring about.)

Data set [2] has as its system SH-SY5Y cells. Conditions: 10 μM αSOs (0.14 μg/ml) with 35 μg/ml peptide, 24 h, MTT. The method, then: as §1, §2
Data set [3] has as its target T1, αSOs (Homo sapiens, UniProt P37840).
T1 construct: made in house; host or cells: Escherichia coli BL21 (DE3); oligomers formed by shaking the monomer and isolated by SEC (Superose 6)
Nature of the data set: Calcein release assay, αSOs together with peptides. The class given is biochemical. The method, then:
αSOs show cytotoxic properties, which have been attributed to their membrane-disrupting ability ([69]). To examine the effect of peptides on membrane permeabilization by αSOs, we used a simple calcein release assay. αSOs, peptides, and aSO–peptide mixtures at 10^−6 to 10^−1 mg/ml peptide were added to calcein-loaded DOPG vesicle, and the extent of calcein release was monitored for 30 min by the increase in fluorescence as calcein leaks out upon membrane permeabilization, leading to dilution and the loss of self-quenching. The time-dependent calcein release data from DOPG vesicles ([70], [71]) in the presence of peptides, αSOs, and αSO–peptides are shown in Figs. S9 and S10. In order to allow easy comparison of all peptides, the calcein release versus concentration (peptides and αSOs) were plotted at the plateau point of release (Fig. 5, A–C). […] Figure 5D compares calcein release percentages of data represented in Figure 5, A and B at peptide concentrations between 0.001 and 0.1 mg/ml, where we see the largest extent of calcein release in general.
Calcein-filled vesicles of DOPG were prepared as described before ([38]). Briefly, DOPG was dissolved in PBS to […], in the presence of calcein at self-quenching concentrations (70 mM) and subjected to 10 freeze–thaw cycles between liquid nitrogen and a 50 °C water bath. After 21 times extrusion through a 100 nm filter, free calcein was separated from vesicles with a PD-10 desalting column (GE Healthcare). Vesicles were stored at 4 °C and used for calcein release assays within 24 h.
Calcein release was measured by mixing peptides and/or αSOs at a final concentration of 10^−6 to 10^−1 mg/ml and 5.2 μg/ml, respectively, in 148 μl with 2 μl of calcein vesicles, and were then loaded onto a 96-well plate (Nunc, Thermo Fischer Scientific) in triplicate. The plate was sealed with Crystal clear sealing tape (Hampton Research), and fluorescence was measured (excitation: 485 nm and emission: 520 nm) for 1 h at 37 °C every 2 min with a 2 s autoshake before each reading on a fluorescence plate reader (Tecan). Finally, 2 μl Triton X-100 (0.2% [v/v]) was added to lyse vesicles, and the maximal fluorescence signal was measured for 20 min under the same reading condition. Background fluorescence was subtracted, and the average signal of calcein release before addition of Triton X-100 (F), after treatment with Triton X-100 (Ft) and for the buffer control (F0) were determined, and calcein release percentage was calculated as follow (Equation 1):(1) CalceinRelease%(CR%)=(F−F0)/(Ft−F0)

In data set [4] the target is T2, α-syn (Homo sapiens, UniProt P37840).
T2 construct: made in house; host or cells: Escherichia coli BL21 (DE3), plasmid pET11-D
Nature of the data set: Microfluidic diffusional sizing binding affinity (Fluidity One-W), α-syn monomer. As to conditions: 60 μM labeled p216, 0–400 μM α-syn monomer, MilliQ water, 15 min in the dark; 1:1 binding fit of Rh; read-out: Dissociation binding constant (Kd) for α-syn. The method, then:
(§3) To determine an actual binding affinity of p216 to αSOs and α-syn, the hydrodynamic radius (Rh) of labeled p216 bound to unlabeled αSOs–α-syn was determined by microfluidic diffusional sizing ([72]). […] Rather, a direct and easily interpretable parameter is provided in the form of the Rh. […] For both species, binding of peptide led to a significant increase in Rh, confirming peptide immobilization in complex with these states. The measured values of ca. 5 and 11 nm for α-syn and αSO, respectively, agree nicely with the known Rh of α-syn ([73]) (4 nm) and αSO (10 nm) ([74]).
(§4) Peptides were labeled with fluidiphore rapid amine 503 (Fluidic Analytics Limited), an amine-reactive fluorescent label whose absorbance shifts from 612 nm (free) to 503 nm when conjugated. About 1 mg dry fluidiphore dye was dissolved in 100 μl acetonitrile and stored at −20 °C. The peptide stock solutions were diluted into labeling buffer (0.1 M NaHCO3, pH 8.3) to a final concentration of 1 mg/ml (100 μl) and mixed with 3 μl of dye solution (final dye concentration of […]) and incubated for 30 min at RT. […]
(§5) Fluidity One-W (Fluidic Analytics Limited) ([101]) was used to measure the binding affinity and Rh of peptides bound to α-syn monomers and oligomers. We determined the lowest concentration of labeled peptides that could be detected by the instrument to be 60 μM. […]

Data set [5] concerns the target T3, αSO (Homo sapiens, UniProt P37840).
T3 construct: made in house; host or cells: Escherichia coli BL21 (DE3); oligomers formed by shaking the monomer and isolated by SEC (Superose 6)
Nature of the data set: Microfluidic diffusional sizing binding affinity (Fluidity One-W), αSO. As to conditions: 60 μM labeled p216, 0–84 μM αSO, MilliQ water, 15 min in the dark; 1:1 binding fit of Rh; read-out: Dissociation binding constant (Kd) for αSO. The method, then:
as §3, §4, §5

The conditions of data set [6]: vesicles formed by DOPG and other negatively charged lipids; cited from earlier work. The method, then:
Penetratin forms β-structures on vesicles formed by DOPG and other negatively charged lipids (at concentrations >10^−3 mg/ml), leading to membrane perturbation ...

For data set [7], the system named is α-syn. As to conditions: cited from earlier work. The source says:
Cell-penetrating peptides (CPPs) ([57]) are defined as a short relatively nontoxic and partly hydrophobic and/or polybasic peptides ([…] 5–35 amino acid residues), with a net positive charge at physiological pH. CPPs have the ability of interacting with negatively charged groups on the cellular membrane, which results in their internalization ([58], [59]) but can also cotransport a variety of cargoes inside the cells ([58], [60], [61], [62]). Cationic CPPs are able to translocate across membranes in a nonendocytotic fashion, generally by one of following mechanisms: the inverted micelle mo ...

In general, Kd refers to the equilibrium constant for the complex coming apart. `CSCC[C@H](NC(=O)[C@H](CCCNC(=N)N)NC(=O)[C@H](CCCNC(=N)N)NC(=O)[C@H](CC(N)=O)NC(=O)[C@H](CCC(N)=O)NC(=O)[C@H](Cc1ccccc1)NC(=O)[C@@H](N)Cc1c[nH]c2ccccc12)C(=O)N[C@@H](CCCCN)C(=O)N[C@@H](Cc1c[nH]c2ccccc12)C(=O)N[C@@H](CCCCN)C(=O)N[C@@H](CCCCN)C(=O)O` [p216] (H-WFQNRRMKWKK-OH): in data set [1] (SH-SY5Y cells, 35 μg/ml peptide alone, 24 h), the “Cell viability (MTT)” value is recorded as 92%. For the same compound, the “Toxicity to SH-SY5Y cells, in words” value in data set [1] (peptide alone, MTT) is on record as “not toxic”. Further, the “Increase of cell viability compared with αSOs alone” value in data set [2] is “about 20%”. The “Reduction of αSO-induced membrane permeability” value in data set [3] (calcein-filled DOPG LUVs, peptide concentration not stated at the place) is reported as 100%. For the same compound, the “Reduction of αSOs-induced large anionic unilamellar vesicle membrane permeability” value in data set [3] (peptide at 10^−1 to 10^−3 mg/ml) is listed as about 100%. The figures for the Kd in data set [4] and in data set [5] were 31.2 µM and 2.7 µM, respectively.
As for “RQIKIWFQNRRMKWKK [Penetratin, cell-penetrating peptide from the third helix of the Antennapedia protein homeodomain]”, the “Concentration at which β-structures form on vesicles, leading to membrane perturbation and permeabilization” value in data set [6] is recorded as > 10^−3 mg/ml. Besides, in data set [7], the “Effect on fibrillation of α-syn” value is on record as “inhibit fibrillation of α-syn”.
